Test results as given in PubChem BioAssay (NCI).
Several values for one entry are separate records, joined by “and”; a condition that tells them apart may be missing. Identical values can stand only once.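 Cells were grown in 96-well plates and exposed to each compound for 48 hours at five concentrations; endpoints were interpolated linearly between bracketing concentrations, or set to the highest concentration if not reached. GI50 marks 50% less growth. TGI marks complete inhibition of growth.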

The compounds below were run on 786-0 renal (assay: NCI-60 cell line screen, 48 h).
Compound CC1OC(c2ccc3c(OCc4ccccc4)cccc3c2O)CC(OCc2ccccc2)[C@H]1OCc1ccccc1 (stereo not given in full) has a TGI greater than 10000 nM. With BrC(=C(c1ccc(OC2CCCCO2)cc1)c1ccc(OC2CCCCO2)cc1)c1ccccc1 (stereo not given) the TGI was greater than 100000 nM. S=c1c2cn[nH]c2nc2scc(-c3ccc(Cl)cc3)n12 gave a TGI of 29400 nM. For O=C(Nc1cc(C(F)(F)F)cc(C(F)(F)F)c1)c1cc(Cl)ccc1O, the GI50 was 269 nM and 293 nM and the TGI was 881 nM and 1150 nM. In the case of N#CNC(=NCc1ccccc1)N(Cc1ccccc1)Cc1ccccc1, the TGI is reported as greater than 31600 nM.

These compounds were tested on A498 renal (assay: NCI-60 cell line screen, 48 h).
BrC(=C(c1ccc(OC2CCCCO2)cc1)c1ccc(OC2CCCCO2)cc1)c1ccccc1 (stereo not given) gave a TGI greater than 100000 nM. Compound CC1(C)CC(=O)C(C(CC(c2ccccc2)c2cc3c(cc2O)OCO3)C2=C(O)CC(C)(C)CC2=O)=C(O)C1 (stereo not given) has a TGI greater than 10000 nM. O=C(Nc1cc(C(F)(F)F)cc(C(F)(F)F)c1)c1cc(Cl)ccc1O was tested, and the GI50 was 45 nM and < 14.1 nM and the TGI was 241 nM and 178 nM.

Each compound was assayed on A549 NSCLC (assay: NCI-60 cell line screen, 48 h).
Work on CC1OC(c2ccc3c(OCc4ccccc4)cccc3c2O)CC(OCc2ccccc2)[C@H]1OCc1ccccc1 (stereo not given in full) yielded a TGI greater than 10000 nM. BrC(=C(c1ccc(OC2CCCCO2)cc1)c1ccc(OC2CCCCO2)cc1)c1ccccc1 (stereo not given) was tested, and the TGI was greater than 100000 nM. S=c1c2cn[nH]c2nc2scc(-c3ccc(Cl)cc3)n12 was tested, and the TGI was 30500 nM. In the case of CC1(C)CC(=O)C(C(CC(c2ccccc2)c2cc3c(cc2O)OCO3)C2=C(O)CC(C)(C)CC2=O)=C(O)C1 (stereo not given), the TGI is reported as greater than 10000 nM. In the case of O=C(Nc1cc(C(F)(F)F)cc(C(F)(F)F)c1)c1cc(Cl)ccc1O, the GI50 is reported as 293 nM and 319 nM and the TGI is reported as > 4320 nM and 12800 nM. With N#CNC(=NCc1ccccc1)N(Cc1ccccc1)Cc1ccccc1 the TGI was greater than 31600 nM.

What follows are compounds tested on ACHN renal (assay: NCI-60 cell line screen, 48 h).
In the case of S=c1c2cn[nH]c2nc2scc(-c3ccc(Cl)cc3)n12, the TGI is reported as 27000 nM. For CC1(C)CC(=O)C(C(CC(c2ccccc2)c2cc3c(cc2O)OCO3)C2=C(O)CC(C)(C)CC2=O)=C(O)C1 (stereo not given), the TGI was greater than 10000 nM. For O=C(Nc1cc(C(F)(F)F)cc(C(F)(F)F)c1)c1cc(Cl)ccc1O, the GI50 was 294 nM and 260 nM and the TGI was 1190 nM and 978 nM. COc1ccc2/c(=C/c3ccc(N(C)C)cc3)c3cc(-c4ccccc4)[n+](C)n3c2c1 was tested, and the TGI was 2390 nM.

What follows are compounds tested on BT-549 breast (assay: NCI-60 cell line screen, 48 h).
Work on S=c1c2cn[nH]c2nc2scc(-c3ccc(Cl)cc3)n12 yielded a TGI of 27500 nM. In the case of O=C(Nc1cc(C(F)(F)F)cc(C(F)(F)F)c1)c1cc(Cl)ccc1O, the GI50 is reported as 206 nM and 213 nM and the TGI is reported as 714 nM and 712 nM. Work on N#CNC(=NCc1ccccc1)N(Cc1ccccc1)Cc1ccccc1 yielded a TGI greater than 100000 nM.

These compounds were tested on CAKI-1 renal (assay: NCI-60 cell line screen, 48 h).
With CC1OC(c2ccc3c(OCc4ccccc4)cccc3c2O)CC(OCc2ccccc2)[C@H]1OCc1ccccc1 (stereo not given in full) the TGI was greater than 10000 nM. Work on BrC(=C(c1ccc(OC2CCCCO2)cc1)c1ccc(OC2CCCCO2)cc1)c1ccccc1 (stereo not given) yielded a TGI greater than 100000 nM. Work on S=c1c2cn[nH]c2nc2scc(-c3ccc(Cl)cc3)n12 yielded a TGI of 24600 nM. CC1(C)CC(=O)C(C(CC(c2ccccc2)c2cc3c(cc2O)OCO3)C2=C(O)CC(C)(C)CC2=O)=C(O)C1 (stereo not given) was tested, and the TGI was greater than 10000 nM. In the case of O=C(Nc1cc(C(F)(F)F)cc(C(F)(F)F)c1)c1cc(Cl)ccc1O, the GI50 is reported as 212 nM and 180 nM and the TGI is reported as 644 nM and 677 nM. Work on COc1ccc2/c(=C/c3ccc(N(C)C)cc3)c3cc(-c4ccccc4)[n+](C)n3c2c1 yielded a TGI of 7770 nM. N#CNC(=NCc1ccccc1)N(Cc1ccccc1)Cc1ccccc1 was tested, and the TGI was 89600 nM.

Each compound was assayed on CCRF-CEM leukemia (assay: NCI-60 cell line screen, 48 h).
With CC1OC(c2ccc3c(OCc4ccccc4)cccc3c2O)CC(OCc2ccccc2)[C@H]1OCc1ccccc1 (stereo not given in full) the TGI was greater than 10000 nM. Work on BrC(=C(c1ccc(OC2CCCCO2)cc1)c1ccc(OC2CCCCO2)cc1)c1ccccc1 (stereo not given) yielded a TGI greater than 100000 nM. With S=c1c2cn[nH]c2nc2scc(-c3ccc(Cl)cc3)n12 the TGI was 50900 nM. In the case of O=C(Nc1cc(C(F)(F)F)cc(C(F)(F)F)c1)c1cc(Cl)ccc1O, the GI50 is reported as 237 nM and 378 nM and the TGI is reported as 1300 nM and 7790 nM. COc1ccc2/c(=C/c3ccc(N(C)C)cc3)c3cc(-c4ccccc4)[n+](C)n3c2c1 was tested, and the TGI was 5370 nM. For N#CNC(=NCc1ccccc1)N(Cc1ccccc1)Cc1ccccc1, the TGI was greater than 31600 nM.

The compounds below were run on COLO 205 colon (assay: NCI-60 cell line screen, 48 h).
Compound CC1OC(c2ccc3c(OCc4ccccc4)cccc3c2O)CC(OCc2ccccc2)[C@H]1OCc1ccccc1 (stereo not given in full) has a TGI greater than 10000 nM. Work on BrC(=C(c1ccc(OC2CCCCO2)cc1)c1ccc(OC2CCCCO2)cc1)c1ccccc1 (stereo not given) yielded a TGI greater than 100000 nM. S=c1c2cn[nH]c2nc2scc(-c3ccc(Cl)cc3)n12 was tested, and the TGI was 65300 nM. Compound CC1(C)CC(=O)C(C(CC(c2ccccc2)c2cc3c(cc2O)OCO3)C2=C(O)CC(C)(C)CC2=O)=C(O)C1 (stereo not given) has a TGI greater than 10000 nM. In the case of O=C(Nc1cc(C(F)(F)F)cc(C(F)(F)F)c1)c1cc(Cl)ccc1O, the GI50 is reported as 696 nM and 1340 nM and the TGI is reported as 2340 nM and 3220 nM. COc1ccc2/c(=C/c3ccc(N(C)C)cc3)c3cc(-c4ccccc4)[n+](C)n3c2c1 showed a TGI of 236 nM.

The compounds below were run on DU-145 prostate (assay: NCI-60 cell line screen, 48 h).
Work on CC1OC(c2ccc3c(OCc4ccccc4)cccc3c2O)CC(OCc2ccccc2)[C@H]1OCc1ccccc1 (stereo not given in full) yielded a TGI greater than 10000 nM. With BrC(=C(c1ccc(OC2CCCCO2)cc1)c1ccc(OC2CCCCO2)cc1)c1ccccc1 (stereo not given) the TGI was greater than 100000 nM. With CC1(C)CC(=O)C(C(CC(c2ccccc2)c2cc3c(cc2O)OCO3)C2=C(O)CC(C)(C)CC2=O)=C(O)C1 (stereo not given) the TGI was greater than 10000 nM. In the case of O=C(Nc1cc(C(F)(F)F)cc(C(F)(F)F)c1)c1cc(Cl)ccc1O, the GI50 is reported as 345 nM and 347 nM and the TGI is reported as > 5230 nM and 10800 nM. Work on COc1ccc2/c(=C/c3ccc(N(C)C)cc3)c3cc(-c4ccccc4)[n+](C)n3c2c1 yielded a TGI of 1770 nM. For N#CNC(=NCc1ccccc1)N(Cc1ccccc1)Cc1ccccc1, the TGI was greater than 100000 nM.

These compounds were tested on EKVX NSCLC (assay: NCI-60 cell line screen, 48 h).
With CC1OC(c2ccc3c(OCc4ccccc4)cccc3c2O)CC(OCc2ccccc2)[C@H]1OCc1ccccc1 (stereo not given in full) the TGI was greater than 10000 nM. In the case of BrC(=C(c1ccc(OC2CCCCO2)cc1)c1ccc(OC2CCCCO2)cc1)c1ccccc1 (stereo not given), the TGI is reported as greater than 100000 nM. In the case of S=c1c2cn[nH]c2nc2scc(-c3ccc(Cl)cc3)n12, the TGI is reported as 49100 nM. For CC1(C)CC(=O)C(C(CC(c2ccccc2)c2cc3c(cc2O)OCO3)C2=C(O)CC(C)(C)CC2=O)=C(O)C1 (stereo not given), the TGI was greater than 10000 nM. In the case of O=C(Nc1cc(C(F)(F)F)cc(C(F)(F)F)c1)c1cc(Cl)ccc1O, the GI50 is reported as 295 nM and 288 nM and the TGI is reported as > 3580 nM and 3430 nM.

What follows are compounds tested on HCC-2998 colon (assay: NCI-60 cell line screen, 48 h).
CC1OC(c2ccc3c(OCc4ccccc4)cccc3c2O)CC(OCc2ccccc2)[C@H]1OCc1ccccc1 (stereo not given in full) gave a TGI greater than 10000 nM. S=c1c2cn[nH]c2nc2scc(-c3ccc(Cl)cc3)n12 was tested, and the TGI was 32500 nM. For O=C(Nc1cc(C(F)(F)F)cc(C(F)(F)F)c1)c1cc(Cl)ccc1O, the GI50 was 307 nM and 349 nM and the TGI was 1330 nM and 3630 nM. In the case of COc1ccc2/c(=C/c3ccc(N(C)C)cc3)c3cc(-c4ccccc4)[n+](C)n3c2c1, the TGI is reported as 1080 nM. Work on N#CNC(=NCc1ccccc1)N(Cc1ccccc1)Cc1ccccc1 yielded a TGI greater than 100000 nM.

These compounds were tested on HCT-116 colon (assay: NCI-60 cell line screen, 48 h).
In the case of BrC(=C(c1ccc(OC2CCCCO2)cc1)c1ccc(OC2CCCCO2)cc1)c1ccccc1 (stereo not given), the TGI is reported as greater than 100000 nM. For S=c1c2cn[nH]c2nc2scc(-c3ccc(Cl)cc3)n12, the TGI was 27900 nM. In the case of CC1(C)CC(=O)C(C(CC(c2ccccc2)c2cc3c(cc2O)OCO3)C2=C(O)CC(C)(C)CC2=O)=C(O)C1 (stereo not given), the TGI is reported as greater than 10000 nM. With O=C(Nc1cc(C(F)(F)F)cc(C(F)(F)F)c1)c1cc(Cl)ccc1O the GI50 was 213 nM and 238 nM and the TGI was 999 nM and 1160 nM. Work on COc1ccc2/c(=C/c3ccc(N(C)C)cc3)c3cc(-c4ccccc4)[n+](C)n3c2c1 yielded a TGI of 1370 nM. N#CNC(=NCc1ccccc1)N(Cc1ccccc1)Cc1ccccc1 showed a TGI greater than 31600 nM.

Each compound was assayed on HCT-15 colon (assay: NCI-60 cell line screen, 48 h).
In the case of CC1OC(c2ccc3c(OCc4ccccc4)cccc3c2O)CC(OCc2ccccc2)[C@H]1OCc1ccccc1 (stereo not given in full), the TGI is reported as greater than 10000 nM. Compound BrC(=C(c1ccc(OC2CCCCO2)cc1)c1ccc(OC2CCCCO2)cc1)c1ccccc1 (stereo not given) has a TGI greater than 100000 nM. S=c1c2cn[nH]c2nc2scc(-c3ccc(Cl)cc3)n12 gave a TGI of 26100 nM. For CC1(C)CC(=O)C(C(CC(c2ccccc2)c2cc3c(cc2O)OCO3)C2=C(O)CC(C)(C)CC2=O)=C(O)C1 (stereo not given), the TGI was greater than 10000 nM. O=C(Nc1cc(C(F)(F)F)cc(C(F)(F)F)c1)c1cc(Cl)ccc1O was tested, and the GI50 was 271 nM and 276 nM and the TGI was 1620 nM and 1490 nM. COc1ccc2/c(=C/c3ccc(N(C)C)cc3)c3cc(-c4ccccc4)[n+](C)n3c2c1 gave a TGI of 3280 nM. For N#CNC(=NCc1ccccc1)N(Cc1ccccc1)Cc1ccccc1, the TGI was greater than 31600 nM.

The compounds below were run on HL-60(TB) leukemia (assay: NCI-60 cell line screen, 48 h).
With CC1OC(c2ccc3c(OCc4ccccc4)cccc3c2O)CC(OCc2ccccc2)[C@H]1OCc1ccccc1 (stereo not given in full) the TGI was greater than 10000 nM. With BrC(=C(c1ccc(OC2CCCCO2)cc1)c1ccc(OC2CCCCO2)cc1)c1ccccc1 (stereo not given) the TGI was greater than 100000 nM. In the case of O=C(Nc1cc(C(F)(F)F)cc(C(F)(F)F)c1)c1cc(Cl)ccc1O, the GI50 is reported as 201 nM and 239 nM and the TGI is reported as 1690 nM and 641 nM. In the case of COc1ccc2/c(=C/c3ccc(N(C)C)cc3)c3cc(-c4ccccc4)[n+](C)n3c2c1, the TGI is reported as 106 nM. N#CNC(=NCc1ccccc1)N(Cc1ccccc1)Cc1ccccc1 was tested, and the TGI was greater than 31600 nM.

Each compound was assayed on HOP-62 NSCLC (assay: NCI-60 cell line screen, 48 h).
CC1OC(c2ccc3c(OCc4ccccc4)cccc3c2O)CC(OCc2ccccc2)[C@H]1OCc1ccccc1 (stereo not given in full) gave a TGI greater than 10000 nM. Compound BrC(=C(c1ccc(OC2CCCCO2)cc1)c1ccc(OC2CCCCO2)cc1)c1ccccc1 (stereo not given) has a TGI greater than 100000 nM. Work on S=c1c2cn[nH]c2nc2scc(-c3ccc(Cl)cc3)n12 yielded a TGI of 40100 nM. In the case of O=C(Nc1cc(C(F)(F)F)cc(C(F)(F)F)c1)c1cc(Cl)ccc1O, the GI50 is reported as 260 nM and 355 nM and the TGI is reported as 1200 nM and 4380 nM. COc1ccc2/c(=C/c3ccc(N(C)C)cc3)c3cc(-c4ccccc4)[n+](C)n3c2c1 showed a TGI of 2630 nM. Compound N#CNC(=NCc1ccccc1)N(Cc1ccccc1)Cc1ccccc1 has a TGI greater than 31600 nM.
